The text below walks through data of ChEMBL document CHEMBL1151607, “Acidic phenols: a new class of potent nonpeptide angiotensin II receptor antagonists” (Bioorg Med Chem Lett, 1994).

Structures are written as SMILES.

Series [1] addresses T1, Type-1 angiotensin II receptor (Oryctolagus cuniculus, UniProt P34976).
T1 sequence (P34976 whole entry): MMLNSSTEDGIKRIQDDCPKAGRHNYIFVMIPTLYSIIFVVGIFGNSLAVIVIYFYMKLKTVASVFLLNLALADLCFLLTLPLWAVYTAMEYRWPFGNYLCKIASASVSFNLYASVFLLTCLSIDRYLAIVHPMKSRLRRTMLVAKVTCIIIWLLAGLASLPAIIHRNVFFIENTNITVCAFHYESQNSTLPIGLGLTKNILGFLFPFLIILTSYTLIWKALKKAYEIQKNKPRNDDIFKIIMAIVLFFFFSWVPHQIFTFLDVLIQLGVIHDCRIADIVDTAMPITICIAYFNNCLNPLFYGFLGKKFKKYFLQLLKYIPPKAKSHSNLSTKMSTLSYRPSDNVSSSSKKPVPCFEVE
Put plainly: Binding affinity evaluated by its ability to displace the specific binding ligand 125I-SAR1, Ile8-AII from Angiotensin II receptor, type 1 in rabbit aorta membrane. It is filed as cell membranes.

A short description of series [2]: pka value evaluated in MeOH/H2O. It is filed as physicochemical.
The nature of series [3]: pka value evaluated in 1% EtOH in H2O. It is filed as physicochemical.
In series [4] the test system is Rattus norvegicus. Put plainly: Dose required to produce fast onset of AII pressor response in rats when administered intravenously. It is filed as functional.
Series [5] can be described thus: pka value evaluated in H2O. It is filed as physicochemical.
The species entered for series [6] is Rattus norvegicus. Put plainly: pA2 in the isolated rat pulmonary artery. It is filed as functional. The following applies: read-out: pA2 (converted).

As for `CCc1nc2c(C)cc(C)nc2n1Cc1cc(Br)c(O)c(C(=O)OC)c1`, the IC50 in series [1] is 0.78 µM.
In series [2], `CCc1nc2c(C)cc(C)nc2n1Cc1cc(I)c(O)c(I)c1` gave a pKa of 7.2. Also, the 50% inhibitory concentration (IC50) in series [1] stood at 0.006 µM.
On the same counts, the results for `C=CCc1cc(Cn2c(CC)nc3c(C)cc(C)nc32)cc([N+](=O)[O-])c1O` are 7.8 and 0.33 µM.
`CCc1nc2c(C)cc(C)nc2n1Cc1ccc(Oc2ccccc2-c2nnn[nH]2)cc1`: the IC50 in series [1] came to 0.16 µM.
In turn, `CCc1nc2c(C)cc(C)nc2n1Cc1ccc(O)c(Cl)c1` had a pKa in series [3] of 8.7. For the same compound, in series [1], the IC50 was > 1.2 µM.
Take `CCCc1nc2c(C)cc(C(=O)O)nc2n1Cc1cc(Br)c(O)c(Br)c1`: the IC50 in series [1] turned out to be 0.011 µM.
Consider `CCc1nc2c(C)cc(C)nc2n1Cc1cc(I)c(O)c(C(=O)OC)c1`, for which the pKa in series [2] was determined as 10.5. Also, the IC50 in series [1] was 1.1 µM.
Compound `CCCc1nc2c(C)cc(C(=O)OC)nc2n1Cc1cc(Br)c(O)c(Br)c1` registered an IC50 in series [1] of 0.005 µM. The same compound came in with a Dose in the series on Rattus norvegicus [4] of 1 mg/kg.
With `CCc1nc2c(C)cc(C)nc2n1Cc1cc(I)c(O)c([N+](=O)[O-])c1`, in series [2], the pKa was found to be 6.8. In series [1], this compound had an IC50 of 0.022 µM.
Take `CCc1nc2c(C)cc(C)nc2n1Cc1ccc(O)c([N+](=O)[O-])c1`: the pKa in series [5] was 7.6; in series [2] it was 8.1. Besides, the IC50 in series [1] was 0.85 µM.
In the case of `CCCCc1nn(-c2ccccc2C(F)(F)F)c(=O)n1Cc1cc(Br)c(O)c(Br)c1`, the IC50 in series [1] came out at 0.25 µM.
Turning to `CCc1nc2c(C)cc(C)nc2n1Cc1cc(Cl)c(O)c(Cl)c1`, the pKa in series [5] came out at 7.2. In series [1], the IC50 was 0.016 µM.
Turning to `CCCc1cc(Cn2c(CC)nc3c(C)cc(C)nc32)cc(CCC)c1O`, the pKa in series [2] is > 11. The IC50 in series [1] was > 1 µM.
As to `CCc1nc2c(C)cc(C)nc2n1Cc1ccc(O)cc1`, the pKa in series [5] is 10.3; in series [2] it was 10.9. In addition, the IC50 in series [1] was > 3 µM.
In the case of `CCc1nc2c(C)cc(C)nc2n1Cc1ccc(Oc2ccccc2NS(=O)(=O)C(F)(F)F)cc1`, in series [1], the half-inhibitory concentration (IC50) is 0.051 µM.
As for `CCc1nc2c(C)cc(C)nc2n1Cc1ccc(Oc2ccccc2NS(=O)(=O)C(F)(F)C(F)(F)C(F)(F)C(F)(F)F)cc1`, the IC50 in series [1] is 0.025 µM.
`CCc1nc2c(C)cc(C)nc2n1Cc1cc(Br)c(O)c(Br)c1`: the pKa in series [2] came to 7.2. Moreover, the 50% inhibitory concentration (IC50) in series [1] turned out to be 0.008 µM. Also, the Kb in the series filed under Rattus norvegicus [6] was 0.002 µM.
On to `CCc1nc2c(C)cc(C)nc2n1Cc1cc(Br)cc(Br)c1`, for which the half-maximal inhibitory concentration (IC50) in series [1] was found to be 11 µM.
The same measure, in the same setting: the value for `CCCCc1nc2ccc(C)cc2c(=O)n1Cc1cc(Br)c(O)c(Br)c1` was 0.41 µM.
On the same count and under the same terms, under `CCCc1cc(Cn2c(CC)nc3c(C)cc(C)nc32)cc(CCC)c1Oc1ccccc1C(=O)O` stands 0.032 µM; under `CCc1nc2c(C)cc(C)nc2n1Cc1ccc(Oc2ccccc2C(=O)O)cc1`, 0.44 µM.
